Reference: patent publication US20090221559A1 (priority 2005, published 2009)
Read-outs that look alike come from different tables or passages of the source.

Key:
[1] = biological target: T1, HCV NS5B polymerase (His-tagged, C-terminal 21 amino acid deleted NS5B, HC-J4) (Hepatitis C virus genotype 1b, UniProt O92972); assay: NS5b polymerase assay (biochemical RdRp assay, 3H-GTP incorporation, SPA beads); design: species or system HCV genotype 1b
T1 construct: The cDNA encoding NS5B amino acid 1-570 (HC-J4, genotype 1b); His tag (His6, from pET-21b) (C); made in house; host or cells: E. coli BL21 (DE3)
Procedure: (§1) The compounds of formula (I) were tested for anti-HCV activity in an assay determining their activity against NS5b polymerase and in an HCV replicon assay
The cDNA encoding NS5B amino acid 1-570 (HC-J4, genotype 1b, pCV-J4L6S, genebank accession number AF054247) was subcloned into the Nhe I and Xho I restriction sites of pET-21b. Expression of the subsequent His-tagged C-terminal 21 amino acid deleted NS5B was performed as follows:
Following transformation in BL21 (DE3) competent cells, bacterial cells were grown in 22 liter LB/Amp media until to reach OD600=0.4-0.6. Protein expression was induced by addition of IPTG 0.4 mM, supplemented with 10 μM MgCl2, and incubated for 14-16 hrs at 20° C. Cells were harvested, resuspended in lysis buffer (20 mM Tris-HCl pH=7.5, 0.3 M NaCl, 10% glycerol, 0.1% NP40, 4 mM MgCl2, 14 mM beta-mercaptoethanol, with tablet of EDTA-free protease cocktail inhibitors) and lysed by sonification. The cell lysate was cleared by high-speed centrifugation (20K×g for 30 min), captured on Ni-NTA beads for 70 min at 4° C., and eluted with 25 mM Hepes pH 7.5, 0.5 M NaCl, 10% glycerol, 14 mM BME, 500 mM imidazole. The eluent was dialysed against 25 mM Hepes pH 7.5, 10% glycerol, 50 mM NaCl, 14 mM BME, after which the protein was further purified by heparin chromatography using the same buffer with 1 M NaCl for elution. Fractions containing pure protein were collected, dialyzed against storage buffer 25 mM Hepes pH=7.5, 300 mM NaCl, 10% glycerol, 14 mM BME), and flash-freezed in liquid nitrogen.
Measurement of HCV NS5B polymerization activity was performed by evaluating the amount of radiolabeled GTP incorporated by the enzyme in a newly synthesized RNA using heteropolymeric RNA template/primer. The highthroughput RdRp assay was carried out in 384-well plates using 200 nM enzyme, 0.1 μCi of ^3H GTP, 5 mM MgCl2, 600 nM GTP, 30 nM PolyC, 300 nM 5′-biotinylated oligo(rG13)/poly(rC) in 20 mM Tris pH 7.5, 21 mM KCl, 2.5 mM DTT, 16.7 mM NaCl and 0.17 mM EDTA. Test compounds were dissolved in dimethylsulfoxide. The test compounds were added to the preformed polymerase-template complex, and incubated at room temperature (RT) for 15 min before the addition of NTPs. The 30-μl reaction was terminated after 2 h at 25° C. upon addition of 30-μl PVT-SPA beads (Amersham Biosciences RPNQ0009, 5 mg/ml in 0.5 M EDTA).

[2] = system: HCV replicon RNA replication in Huh-7 luc/neo (Huh-Luc) cells; assay: HCV replicon assay (stable replicon cell reporter assay, luciferase read-out); assay type: cell-based, HCV type 1b
Procedure: as §1
The compounds of the present invention were examined for activity in the inhibition of HCV RNA replication in a cellular assay. […] The cellular assay was based on a bicistronic expression construct, as described by Lohmann et al. (1999) Science vol. 285 pp. 110-113 with modifications described by Krieger et al. (2001) Journal of Virology 75: 4614-4624, in a multi-target screening strategy. In essence, the method was as follows.
The assay utilized the stably transfected cell line Huh-7 luc/neo (hereafter referred to as Huh-Luc). This cell line harbored an RNA encoding a bicistronic expression construct comprising the wild type NS3-NS5B regions of HCV type 1b translated from an Internal Ribosome Entry Site (IRES) from encephalomyocarditis virus (EMCV), preceded by a reporter portion (FfL-luciferase), and a selectable marker portion (neo^R, neomycine phosphotransferase). The construct was bordered by 5′ and 3′ NTRs (non-translated regions) from HCV type 1b. Continued culture of the replicon cells in the presence of G418 (neo^R) was dependent on the replication of the HCV RNA. The stably transfected replicon cells that expressed HCV RNA, which replicated autonomously and to high levels, encoding inter alia luciferase, were used for screening the antiviral compounds.
The replicon cells were plated in 384 well plates in the presence of the test and control compounds which were added in various concentrations. Following an incubation of three days, HCV replication was measured by assaying luciferase activity (using standard luciferase assay substrates and reagents and a Perkin Elmer ViewLux™ ultraHTS microplate imager). […] The inhibitory activity of the compound on luciferase activity was monitored on the Huh-Luc cells, enabling a dose-response curve for each test compound.

[3] = 200 nM enzyme, 3H-GTP incorporation, 2 h at 25° C., read-out: NS5B Polymerase Assay IC50
[4] = Huh-Luc cells, three days incubation, luciferase activity, read-out: Replicon Assay EC50
[5] = NS5B Polymerase Assay IC50, 200 nM enzyme, 3H-GTP incorporation, 2 h at 25° C.
[6] = NS5B Polymerase Assay IC50 (μM)

T1 sequence (O92972 2417-3000, looked up, stated change not applied): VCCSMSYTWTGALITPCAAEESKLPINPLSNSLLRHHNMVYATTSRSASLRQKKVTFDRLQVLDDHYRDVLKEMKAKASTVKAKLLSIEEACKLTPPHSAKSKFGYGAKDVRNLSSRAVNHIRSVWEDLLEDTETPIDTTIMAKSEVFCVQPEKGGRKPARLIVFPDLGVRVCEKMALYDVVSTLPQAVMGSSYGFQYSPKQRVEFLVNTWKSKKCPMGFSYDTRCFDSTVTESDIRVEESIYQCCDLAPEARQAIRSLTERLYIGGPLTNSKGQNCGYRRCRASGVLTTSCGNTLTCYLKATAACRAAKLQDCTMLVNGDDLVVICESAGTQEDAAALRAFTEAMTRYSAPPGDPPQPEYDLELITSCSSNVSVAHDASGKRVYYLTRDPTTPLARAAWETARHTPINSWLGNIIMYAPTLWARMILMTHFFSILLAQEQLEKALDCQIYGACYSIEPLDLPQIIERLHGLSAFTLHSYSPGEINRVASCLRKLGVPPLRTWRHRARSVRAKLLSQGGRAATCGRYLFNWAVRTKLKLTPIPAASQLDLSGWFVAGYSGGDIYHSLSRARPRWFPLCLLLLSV

Row | Compound | IC50 [1, 3] | EC50 [2, 4] | other results
1 | 3-(2-benzyloxyphenyl)-11-[3-(4-chlorobenzoyloxy)phenyl]-2,3,4,5,10,11-hexahydro-dibenzo[b,e][1,4]diazepin-1-one [compound 513] |  |  | IC50 ([1]; read-out: NS5B Polymerase Assay IC50): 70.1 µM; EC50 ([2]; Huh-Luc cells, incubation of three days, luciferase activity, read-out: Replicon Assay EC50): 3.67 µM
2 | COc1ccc(C2C3=C(CC(c4cccc([N+](=O)[O-])c4)CC3=O)Nc3ccccc3N2C(C)=O)cc1OC (mixture of isomers) [compound 180] | > 42.7 µM | 11.8 µM | 
3 | CCCCCC(=O)N1c2ccccc2NC2=C(C(=O)CC(c3ccc(OC)c(OC)c3)C2)C1c1cccc([N+](=O)[O-])c1 (mixture of isomers) [compound 181] | > 33.3 µM | 2.41 µM | 
4 | CCCCCC(=O)N1c2ccccc2NC2=C(C(=O)CC(c3ccc(C)cc3)C2)C1c1ccccc1Cl (mixture of isomers) [compound 182] | > 42.7 µM | 1.82 µM | 
5 | CCCCCC(=O)N1c2ccccc2NC2=C(C(=O)CC(c3ccc(OC)c(OC)c3)C2)C1c1ccc(Cl)cc1 (mixture of isomers) [compound 185] | > 33.3 µM | 4.79 µM | 
6 | COc1ccc(C2C3=C(CC(c4ccc(C)cc4)CC3=O)Nc3ccccc3N2C(=O)c2ccccc2)cc1 (mixture of isomers) [compound 188] | > 33.3 µM | 5.16 µM | 
7 | CCC(=O)N1c2ccccc2NC2=C(C(=O)CC(c3ccc(OC)c(OC)c3)C2)C1c1cccc(Cl)c1 (mixture of isomers) [compound 193] | > 33.3 µM | 5.92 µM | 
8 | COc1ccc(C2C3=C(CC(c4ccc(C)cc4)CC3=O)Nc3ccccc3N2C(=O)C(F)(F)F)cc1 (mixture of isomers) [compound 194] | > 33.3 µM | 5.22 µM | 
9 | CCC(=O)N1c2ccccc2NC2=C(C(=O)CC(c3ccc(C)cc3)C2)C1c1cccc(Cl)c1 (mixture of isomers) [compound 195] | > 33.3 µM | 6.9 µM | 
10 | COc1ccc(C2CC(=O)C3=C(C2)Nc2ccccc2N(C(=O)C(F)(F)F)C3c2ccc(C)cc2)cc1 (mixture of isomers) [compound 196] | > 33.3 µM | 7.32 µM | 
11 | COc1ccc(C2C3=C(CC(c4ccc(C)cc4)CC3=O)Nc3ccccc3N2C(=O)c2ccccc2)cc1OC (mixture of isomers) [compound 197] | > 33.3 µM | 8.97 µM | 
12 | COc1ccc(C2CC(=O)C3=C(C2)Nc2ccccc2N(C(C)=O)C3c2cccc(Cl)c2)cc1OC (mixture of isomers) [compound 198] | > 33.3 µM | 9.22 µM | 
13 | CC(=O)N1c2ccccc2NC2=C(C(=O)CC(c3ccccc3)C2)C1c1ccc(C)cc1 (mixture of isomers) [compound 199] | > 42.7 µM | 11.5 µM | 
14 | COc1ccc(C2C3=C(CC(c4ccc(Cl)cc4)CC3=O)Nc3ccccc3N2C(=O)C(F)(F)F)cc1 (mixture of isomers) [compound 200] | > 33.3 µM | 9.57 µM | 
15 | O=C1CC(c2ccc(Cl)cc2)CC2=C1C(c1cccc([N+](=O)[O-])c1)N(C(=O)C(F)(F)F)c1ccccc1N2 (mixture of isomers) [compound 202] | > 33.3 µM | 9.68 µM | 
16 | O=C1CC(c2ccc(Cl)cc2)CC2=C1C(c1cccc(Cl)c1)N(C(=O)c1ccccc1)c1ccccc1N2 (mixture of isomers) [compound 203] | > 33.3 µM | 9.94 µM | 
17 | Cc1ccc(C2CC(=O)C3=C(C2)Nc2ccccc2N(C(=O)c2ccccc2)C3c2cccc(Cl)c2)cc1 (mixture of isomers) [compound 204] | > 33.3 µM | 9.96 µM | 
18 | CCC(=O)N1c2ccccc2NC2=C(C(=O)CC(c3cccc([N+](=O)[O-])c3)C2)C1c1ccc(Cl)cc1 (mixture of isomers) [compound 211] | > 42.7 µM |  | 

Row | Compound | IC50 [1, 3] | EC50 [2, 4] | other results
19 | O=C1CC(c2cccc([N+](=O)[O-])c2)CC2=C1C(c1ccc(Cl)cc1)N(C(=O)C(F)(F)F)c1ccccc1N2 (mixture of isomers) [compound 214] | > 42.7 µM |  | 
20 | CC(=O)N1c2ccccc2NC2=C(C(=O)CC(C)(C)C2)C1c1ccc(OCc2ccccc2)c(Cl)c1 (single isomer, unassigned) [compound 303, 10-acetyl-11-[4-benzyloxy-3-chlorophenyl]-3,3-dimethyl-2,3,4,5,10,11-hexahydro-1H-dibenzo[b,e][1,4]diazepin-1-one] |  |  | IC50 [1, 5]: 31.5 µM
21 | COc1ccc(C2C3=C(CC(C)(C)CC3=O)Nc3ccccc3N2C(=O)c2ccccc2)cc1OCc1ccccc1 (stereo not shown) [compound 51] |  | 7.66 µM | 
22 | CC1(C)CC(=O)C2=C(C1)Nc1ccccc1N(C(=O)Cc1ccccc1)C2c1ccc(Br)cc1 (stereo not shown) [compound 95] |  |  | IC50 [1, 5]: > 33.3 µM
23 | CC1(C)CC(=O)C2=C(C1)Nc1ccccc1N(C(=O)NCc1ccoc1)C2c1ccc(Cl)cc1Cl (stereo not shown) [compound 158] |  | 31.1 µM | 
24 | CC1(C)CC(=O)C2=C(C1)Nc1ccccc1N(C(=O)NCc1ccccc1)C2c1ccc(Cl)cc1Cl (stereo not shown) [compound 159] |  | 9.59 µM | 
25 | Cc1ccc(C2C3=C(CC(c4cccc(Cl)c4)CC3=O)Nc3ccccc3N2C(=O)C(F)(F)F)cc1 (stereo not shown) [compound 225] | > 42.7 µM |  | 
26 | CC1(C)CC(=O)C2=C(C1)Nc1ccccc1N(C(=O)Cc1ccccc1)C2c1ccc(-c2ccc([N+](=O)[O-])cc2)o1 (stereo not shown) [compound 238] |  |  | IC50 [1, 5]: > 42.7 µM
27 | CC(C)C(=O)N1c2ccccc2NC2=C(C(=O)CC(C)(C)C2)C1c1ccc([N+](=O)[O-])s1 (stereo not shown) [compound 239] |  |  | IC50 [1, 5]: > 42.7 µM
28 | CC1(C)CC(=O)C2=C(C1)Nc1ccccc1N(C(=O)C(F)(F)F)C2/C(Br)=C/c1ccccc1 (stereo not shown) [compound 256] |  |  | EC50 ([2]; Hepatitis C virus, Huh-7, 72 h, read-out: Replicon Assay EC50, Huh-Luc cells, three days incubation, luciferase activity): 3.98 µM
29 | CC1(C)CC(=O)C2=C(C1)Nc1ccccc1N(C(=O)c1ccccc1)C2c1ccc(-c2cccc([N+](=O)[O-])c2)o1 (stereo not shown) [compound 272] |  |  | IC50 [1, 5]: > 42.7 µM
30 | CCCCCC(=O)N1c2ccccc2NC2=C(C(=O)CC(c3ccco3)C2)C1c1cccc([N+](=O)[O-])c1 (stereo not shown) [compound 290] |  |  | IC50 [1, 5]: > 42.7 µM
31 | COc1ccc(C2CC(=O)C3=C(C2)Nc2ccccc2NC3c2ccccc2OC(C)C)cc1 (stereo not shown) [compound 333] |  |  | IC50 [1, 6]: > 42.7 µM
32 | COc1ccc(C2CC(=O)C3=C(C2)Nc2ccccc2NC3c2c(F)cccc2Cl)cc1 (stereo not shown) [compound 334] |  |  | IC50 [1, 6]: > 42.7 µM
33 | COc1ccc(OC)c(C2Nc3ccccc3NC3=C2C(=O)CC(c2ccccc2)C3)c1 (stereo not shown) [compound 351] |  |  | IC50 [1, 6]: > 42.7 µM
34 | O=C1C[C@@H](c2ccc(Cl)cc2)CC2=C1[C@H](c1cc3c(cc1[N+](=O)[O-])OCO3)Nc1ccccc1N2 [compound 475] |  |  | IC50 [1, 6]: > 42.7 µM
35 | O=C1C[C@@H](c2ccc(Cl)cc2)CC2=C1[C@H](c1cc3c(cc1Br)OCO3)Nc1ccccc1N2 [compound 479] |  |  | IC50 [1, 6]: > 42.7 µM
